pIC50: −log10 of the molar value.
System: human peripheral blood mononuclear cells
Assay: Inhibition of LPS-stimulated TNFα release from human peripheral blood mononuclear cells (TNFα screen)
Type: cell-based
Conditions: LPS-stimulated human PBMC, 18 hours incubation, TNFα in supernatant by ELISA
Description: Venous blood Is collected from healthy volunteers and the mononuclear cells purified by centrifugation through Histopaque (ficoll) cushions. TNFα production from these cells is stimulated by addition of lipopolysaccharide. After 18 hours incubation in the presence of LPS, the cell supernatant is removed and the concentration of TNFα in the supernatant determined by ELISA. Addition of PDE4 inhibitors reduces the amount of TNFα produced. An IC50 is determined which is equal to the concentration of compound that gives 50% inhibition of TNFα production as compared to the LPS stimulated control wells.

COC(=O)CCC(=O)NC1CCC(NC(=O)c2cc(F)cnc2Oc2ccc(F)cc2)CC1 (stereo not drawn) [Example 110, Syn-N-(4-{[5-fluoro-2-(4-fluoro-phenoxy)-pyridine-3-carbonyl]-amino}-cyclo-hexyl)-succinamic acid methyl ester]
pIC50: 7.85

Reference: patent US6949573B2, “Nicotinamide derivatives useful as PDE4 inhibitors” (Pfizer Inc, priority 2002, dated 2005)
